{"source": "patent US10501414B2", "about": "“Indole analogs as 5-oxo-ETE receptor antagonists and method of use thereof” (THE ROYAL INSTITUTION FOR THE ADVANCEMENT OF …, priority 2015, dated 2019)", "key": {"OXE receptor [1]": {"molecular_target": "T1, OXE receptor (Homo sapiens, UniProt Q8TDS5)", "T1 construct": "Human granulocytes (≥95% neutrophils) are prepared from whole blood; endogenous in cells; host or cells: human granulocytes (≥95% neutrophils) from whole blood", "assay": "Calcium mobilization in human granulocytes (inhibition of 5-oxo-ETE-induced calcium mobilization)", "format": "cell-based", "details": "for times less potent than compound V230 in blocking 5-oxo-ETE-induced calcium mobilization in neutrophils: relative to V230", "protocol": "Evaluation of Antagonist Activity: Calcium Mobilization in Human Granulocytes\nHuman granulocytes (≥95% neutrophils) are prepared from whole blood using Dextran 500 to remove red blood cells, followed by centrifugation over Ficoll-Paque to remove mononuclear cells and hypotonic lysis of any remaining red blood cells. After centrifugation the granulocytes are suspended in Ca^++/Mg^++-free phosphate-buffered saline (PBS^−). Granulocytes (10^7 cells/ml) are incubated with the acetoxymethyl ester of indo-1 (1 μM) for 30 min, followed by washing twice with PBS^− and resuspension in the same medium to obtain a final cell concentration of 3.22×10^6 cells/ml. Five minutes prior to commencing data acquisition, Ca^++ and Mg^++ are added to give final concentrations of 1.8 and 1 mM, respectively. Calcium measurements are performed at 37° C. using a spectrofluorometer equipped with a temperature-controlled cuvette holder and a magnetic stirrer. The excitation and emission wavelengths are 331 nm and 410 nm, respectively. Following stabilization of the baseline, fluorescence is measured for 1 min, prior to the addition of either vehicle or various concentrations of a potential 5-oxo-ETE antagonist. Two min later, 5-oxo-ETE (10 nM) is added, followed 1 min later by digitonin (final concentration 0.1%). Data acquisition is terminated after a further 0.5 min. Fmax is determined from fluorescence measurements after the addition of digitonin, whereas Fmin is determined after determination of autofluorescence as described in the literature. A dissociation constant of 250 nM for the indo-1/Ca^++ complex is used to calculate [Ca^++]i. The % inhibition of 5-oxo-ETE-induced calcium mobilization by the antagonist is calculated as follows: Inhibition (%)=(1−(Caant/Ca^++veh))×100 where Caant is the increase in cytosolic calcium levels induced by 5-oxo-ETE (10 nM) following the addition of a potential antagonist, whereas Caveh is the response induced by 5-oxo-ETE following addition of vehicle alone."}, "[2]": {"assay": "Antagonist concentrations in blood (plasma) following oral administration", "format": "in vivo", "details": "cynomolgus monkeys", "protocol": "Measurement of Antagonist Concentrations in Blood Following Oral Administration\nAntagonists dissolved in ethanol (5 to 75 mg/ml) and added to 20 mM NaHCO3 pH 8.0. The resulting suspension (7 to 13 ml containing 10% ethanol) was administered by gavage (between 1 and 30 mg/kg) to cynomolgous monkeys (3 to 4 kg body weight). After different times (between 0.5 and 24 h as well as just prior to administration of antagonist) blood samples (1-2 ml) were taken and centrifuged to obtain plasma, which was frozen and transported to the laboratory as soon as the experiment was complete. Upon arrival at the laboratory, the plasma samples were thawed and the internal standards (1.5 μg), along with 2 volumes of MeOH, were added, the mixture vortexed, and then stored at −80° C. until analysis. The internal standards were structural analogs containing different numbers of methylene groups. Prior to analysis the plasma samples were warmed to room temperature, the above plasma samples containing MeOH were centrifuged and water was added to the supernatant to give a final concentration of 30%. The samples were then applied to a C18 SepPak cartridge (Waters Associates) that had previously been washed with MeOH followed by water (Powell, W. S., Prostaglandins, 1980. 20: p. 947-957). The extracts were analyzed by reversed-phase HPLC combined with automated precolumn extraction (Powell, W. S., Anal. Biochem., 1987. 164: p. 117-131). The stationary phase for the separation was a Novapak C18 column (4 μm particle size; 3.9×150 mm). The amounts of antagonists were determined on the basis of UV absorbance by comparing the peak area for the antagonist in question with that for the corresponding internal standard and correcting for any difference in extinction coefficient.\nTo examine the PK profiles of compounds V197 and V230 these compounds were administered to cynomolgus monkeys by oral gavage at a dose of 30 mg/kg. Plasma levels were measured following solid-phase extraction by reversed-phase high performance liquid chromatography (HPLC) after 0.5, 1, 2, 4, 8, 18, and 24 h using appropriate internal standards."}, "[3]": {"assay": "Metabolism of OXE antagonists by monkey liver microsomes", "format": "in vitro ADME, cynomolgous monkey", "protocol": "Metabolism of OXE Antagonists by Monkey Microsomes\nMicrosomes (catalog number MKMC-PL) from cynomolgous monkey liver were obtained from Life Technologies. Antagonists (100 μM) were incubated for various times with liver microsomes (0.5 mg protein/ml) in PBS in the presence of NADPH (2 mM). After various times aliquots (0.1 ml) were removed and placed in a tube containing 0.36 ml ice-cold methanol. After addition of 0.74 ml of water along with 1 μg of an appropriate internal standard the samples were stored at −80° C. until analysis by reversed-phase HPLC."}, "[4]": {"system": "5-oxo-ETE-induced dermal eosinophil infiltration", "assay": "Inhibition of 5-oxo-ETE-induced dermal eosinophil infiltration", "format": "in vivo", "details": "Rhesus monkeys, biopsy at 24 h", "protocol": "Inhibition of 5-Oxo-ETE-Induced Dermal Eosinophil Infiltration\nRhesus monkeys (n=6) were injected intradermally with 5-oxo-ETE (5 μg) or vehicle. Compound 50 (5 or 10 mg/kg) or vehicle were administered by oral gavage both 1 h before and 7 h after injection of 5-oxo-ETE.\nSkin biopsies were taken 24 h after administration of 5-oxo-ETE and sections from paraffin-embedded tissue were stained for eosinophil major basic protein, followed by counting of eosinophils."}, "OXE receptor [5]": {"molecular_target": "T1, OXE receptor", "details": "previously described values for V230 and its enantiomers; read-out: IC50, previously disclosed/reported; cited from earlier work"}, "[6]": {"details": "inhibition of calcium mobilization induced by 5-oxo-ETE (10 nM) in human granulocytes, bracketed figure in cell = n, read-out: IC50"}, "[7]": {"details": "oral gavage 30 mg/kg, over 24 h"}, "[8]": {"details": "5-oxo-ETE-induced calcium mobilization"}, "[9]": {"details": "oral gavage 30 mg/kg, over 24 h, 30 mg/kg"}}, "note": "Entries after “also recorded” stand apart in the source; their conditions may differ. Where two headings read alike, the source gives them in different places.", "data": [{"smiles": "CC(CC(=O)O)CC(=O)c1c(CCCCCCc2ccccc2)n(C)c2ccc(Cl)cc12", "note": "(racemic) [Compound 15, 5-(5-chloro-1-methyl-2-(6-phenylhexyl)-1H-indol-3-yl)-3-methyl-5-oxopentanoic acid]", "values": [{"measurement": "IC50", "setting": "OXE receptor [1]; [6]", "value": 0.18, "unit": "nM"}, {"measurement": "course of plasma levels / PK profile in words", "setting": "[2]; [7]", "value": "declined much more slowly than the S-enantiomer"}]}, {"smiles": "C[C@@H](CC(=O)O)CC(=O)c1c(CCCCCCc2ccccc2)n(C)c2ccc(Cl)cc12", "note": "(single isomer, unassigned) [Compound 61]", "values": [{"measurement": "IC50", "setting": "OXE receptor [1]; [6]", "value": "23 ± 2", "unit": "nM"}, {"measurement": "course of plasma levels / PK profile in words", "setting": "[2]; [7]", "value": "higher than those of the S-enantiomer and dropped much more slowly"}]}, {"smiles": "C[C@H](CC(=O)O)CC(=O)c1c(CCCCCCc2ccccc2)n(C)c2ccc(Cl)cc12", "note": "[Compound 46, (S)-5-(5-chloro-1-methyl-2-(6-phenylhexyl)-1H-indol-3-yl)-3-methyl-5-oxopentanoic acid]", "values": [{"measurement": "IC50", "setting": "OXE receptor [1]; [6]", "value": 0.1, "unit": "nM"}, {"measurement": "course of plasma levels / PK profile in words", "setting": "[2]; [7]", "value": "fell much more slowly"}, {"measurement": "plasma levels relative to V230 at later time points", "setting": "[2]; [7]", "value": "at least 10 times higher"}, {"measurement": "difference in unmetabolized:metabolized ratio versus V230", "setting": "[3]; 4 h, in favor of 46", "value": 4, "unit": "fold"}]}, {"smiles": "C[C@H](CC(=O)O)CC(=O)c1c(C(O)CCCCCc2ccccc2)n(C)c2ccc(Cl)cc12", "note": "(stereo partly shown) [Compound 46M]", "values": [{"measurement": "antagonist activity / potency in words", "setting": "OXE receptor [1]; [8]", "value": "5-oxo-ETE-induced calcium mobilization inhibitors"}, {"measurement": "IC50", "setting": "OXE receptor [1]; [6]", "value": "0.8 ± 0.3", "unit": "nM"}, {"measurement": "time to peak / maximal plasma levels", "setting": "[2]; oral gavage 30 mg/kg (46M after administration of 46)", "value": "8 to 12", "unit": "h"}]}, {"smiles": "C[C@H](CC(=O)O)CC(=O)c1c(CCCCCCc2cccc(Cl)c2)n(C)c2ccc(Cl)cc12", "note": "[Compound 50, (S)-5-(5-chloro-2-(6-(3-chlorophenyl)hexyl)-1-methyl-1H-indol-3-yl)-3-methyl-5-oxopentanoic acid]", "values": [{"measurement": "IC50", "setting": "OXE receptor [1]; 5-oxo-ETE-induced calcium mobilization, read-out: potency (IC50) in the picomolar range", "value": "~0.008", "unit": "nM"}, {"measurement": "IC50", "setting": "OXE receptor [1]; [6]", "value": "0.0081 ± 0.0013", "unit": "nM"}, {"measurement": "5-Oxo-ETE-induced eosinophil infiltration", "setting": "[4]; 5 mg/kg oral gavage 1 h before and 7 h after 5-oxo-ETE, p<0.005", "value": "significantly inhibited"}, {"measurement": "5-Oxo-ETE-induced eosinophil infiltration", "setting": "[4]; 10 mg/kg oral gavage 1 h before and 7 h after 5-oxo-ETE, p<0.02", "value": "significantly inhibited"}]}, {"smiles": "CC(C)CCCCc1c(C(=O)CC(C)CC(=O)O)c2cc(Cl)ccc2n1C", "note": "(stereo not shown) [Compound V197, reference compound]", "values": [{"measurement": "IC50", "setting": "OXE receptor [1]; [6]", "value": 20, "unit": "nM"}, {"measurement": "course of plasma levels / PK profile in words", "setting": "[2]; [9]", "value": "dropped quite rapidly after 1 h; also recorded: inferior to that of compound V230"}]}, {"smiles": "CCCCCCc1c(C(=O)C[C@H](C)CC(=O)O)c2cc(Cl)ccc2n1C", "note": "[Compound V230, reference compound]", "values": [{"measurement": "extent of metabolism in plasma in words", "setting": "[2]; oral gavage 30 mg/kg, after 8 h, compared with 46", "value": "much greater"}, {"measurement": "course of plasma levels / PK profile in words", "setting": "[2]; [9]", "value": "dropped quite rapidly after 1 h; also recorded: rapid decline"}, {"measurement": "extent of metabolism by microsomes in words", "setting": "[3]; NADPH, up to 4 h, compared with 46", "value": "much greater"}, {"measurement": "IC50", "setting": "OXE receptor [5]", "value": "26 ± 4", "unit": "nM"}]}, {"smiles": "CCCCCC(O)c1c(C(=O)CC(C)CC(=O)O)c2cc(Cl)ccc2n1C", "note": "(stereo not shown) [Compound V230M, reference compound]", "values": [{"measurement": "antagonist activity / potency in words", "setting": "OXE receptor [1]; [8]", "value": "significantly reduced IC50"}, {"measurement": "IC50", "setting": "OXE receptor [1]; [6]", "value": "3300 ± 1100", "unit": "nM"}]}, {"smiles": "CC(O)CCCCc1c(C(=O)CC(C)CC(=O)O)c2cc(Cl)ccc2n1C", "note": "(stereo not shown) [Met a V230 (ω-1)OH, reference compound]", "values": [{"measurement": "IC50", "setting": "OXE receptor [1]; [6]", "value": "1600 ± 400", "unit": "nM"}, {"measurement": "times less potent than compound V230 in blocking 5-oxo-ETE-induced calcium mobilization in neutrophils", "setting": "OXE receptor [1]", "value": "about 100 times"}]}, {"smiles": "CC(=O)CCCCc1c(C(=O)CC(C)CC(=O)O)c2cc(Cl)ccc2n1C", "note": "(stereo not shown) [Met b V230 (ω-1)oxo, reference compound]", "values": [{"measurement": "IC50", "setting": "OXE receptor [1]; [6]", "value": "1900 ± 500", "unit": "nM"}, {"measurement": "times less potent than compound V230 in blocking 5-oxo-ETE-induced calcium mobilization in neutrophils", "setting": "OXE receptor [1]", "value": "about 100 times"}]}, {"smiles": "CC(CC(=O)O)CC(=O)c1c(CCCCCCO)n(C)c2ccc(Cl)cc12", "note": "(stereo not shown) [V230 ω-OH, reference compound]", "values": [{"measurement": "IC50", "setting": "OXE receptor [1]; [6]", "value": "260 ± 30", "unit": "nM"}]}]}
